Reference: US10441560B2, “Compositions and methods for treating non-alcoholic steatohepatitis” (priority 2013, dated 2019)

Legend:
[1] = Absorption, distribution and metabolites after oral 14C-EPA-E in rats; assay type: in vivo
Protocol: (§1) After administration of ^14C-EPA-E into the ligated intestine of rats, the residual radioactivity in the intestine at 24 hours was only 4.6% of the administered dose. Radioactivity transferred to the plasma and lymph was mainly detected in the triglyceride (TG) fraction in the early phase after dosing, while distribution to the free fatty acid (FFA) fraction was slight at all timepoints. […] Orally administered EPA-E was primarily incorporated in adrenal gland lipids as cholesterol esters of the fatty acids eicosapentaenoic acid (EPA), docosapentaenoic acid (DPA) and docosahexaenoic acid (DHA).
After oral administration of ^14C-EPA-E to the rat, EPA, DPA and DHA were detected as metabolites in the total lipid fraction of the plasma and tissues (liver, fat, heart and brain). […] In the total lipid fraction of the liver, the radioactivity originated mainly from EPA, DPA and DHA. Thus, it is considered that EPA, DPA and DHA are the predominant metabolites of ^14C-EPA-E in tissues, as constituent fatty acids of the total lipid fraction.

ligated intestine = assay: Administration of 14C-EPA-E into the ligated intestine of rats; assay type: in vivo; details: at 24 hours
Protocol: as §1

[2] = Hydrolysis in rat small intestine homogenates, lymph, plasma and liver homogenates; assay type: in vitro ADME
CYP450 = details: at free concentrations observed in humans; previous studies; cited from earlier work
[3] = Lipid lowering in animal studies; assay type: in vivo; details: rats, hamsters and rabbits
arteries = assay: Preservation of elasticity of arteries; assay type: in vivo; details: rabbits
[4] = tested on: diet-induced hepatic steatosis model; assay: Mouse diet-induced hepatic steatosis model; assay type: in vivo; details: repeat oral administration at ≥0.1 mg/g
pylorus-ligated rats = assay: Gastric fluid levels in pylorus-ligated rats; assay type: in vivo; details: 3000 mg/kg oral dose
[5] = tested on: methionine-choline deficient diet rat model of nonalcoholic steatohepatitis; assay: Methionine-choline deficient diet rat model of nonalcoholic steatohepatitis; assay type: in vivo; details: repeat oral administration at 1000 mg/kg
[6] = tested on: central nervous, autonomic nervous, respiratory and cardiovascular systems; assay: Safety pharmacology studies; assay type: in vivo; details: oral doses up to 3000 mg/kg
[7] = design: species or system dogs; details: dog, in vivo, po, 30 mg/kg, 1 week
Protocol: (§2) Consequently, when EPA-E is administered orally to humans, it would appear that it is well absorbed, even though the unchanged ethyl ester form is not detected, and the free form (EPA) is only detected at a very low level, in the blood. Due to this absorption mechanism of essential fatty acids, the administered EPA-E exists as a blood-constituent fatty acid in the total lipids. In fact, according to the approval package document of Lovaza®, the free form of EPA is undetectable in the circulation (<1 μM) following an oral dose of 4 g of Omacor® (a mixture of the ethyl esters of EPA and DHA) Following oral administration of EPA-E, EPA, DPA and DHA were isolated and identified as metabolites in tissues and plasma. EPA, DPA and DHA were incorporated into TG and PL. Radioactivity was primarily excreted in expired air (44%) after single oral administration at 30 mg/kg EPA-E with minimal excretion in bile and urine (˜3%) and approximately 20% excreted in feces.

NASH = assay: Phase II double blind, placebo-controlled clinical trial of EPA-E in subjects with NASH; assay type: in vivo, human
Description: This example provides the protocol used for an ongoing phase II clinical trial, double blind, placebo-controlled study to investigate the safety, efficacy, and pharmacokinetic profile of two doses of EPA-E in subjects with NASH. Up to 70 subjects were enrolled into each treatment arm, for a total of 210 subjects to be enrolled. Block randomization using an interactive voice response system (IVRS) was used to assign patients in a 1:1:1 ratio to two active doses and placebo. Patients were stratified at randomization by presence or absence of diabetes. Patients with diabetes comprised no more than 25% of the total number of patients enrolled. […] Subjects were required to have a liver biopsy with proven NASH in the 6 month period prior to screening. The Pharmacokinetic profile for EPA-E was evaluated in a subgroup of subjects in specified sites. Subjects were approached prior to providing informed consent to determine if they will participate in the PK group subset. Approximately 36 subjects participated in the PK subset evaluation (12 from each treatment arm, to include 6 males and 6 females). Overall study duration plan was 2 years. In order to support the trial, EPA-E capsules and matching placebo capsules were prepared. EPA-E capsule is an oval soft gelatin capsule containing 300 mg of EPA-E as an active ingredient. […] These capsules are unidentifiable as EPA-E capsules or placebo capsules. Subjects were administered orally 3 capsules 3 times daily, immediately after meals. Subjects were potentially included into the study if they met all the following criteria: • 1. Diagnosis of definite NASH by the central reading pathologists: • Liver biopsy slides will be submitted for evaluation by the central pathologists according to one of the following criteria: • a. Previous liver biopsies must have been obtained within 6 months prior to informed consent and should be judged by the local pathologist as showing NAS ≥4 with a minimum score of 1 each for steatosis and lobular inflammation plus […] ballooning OR at least 1a sinusoidal fibrosis AND a finding of possible or definite steatohepatitis • b. For liver biopsies performed after informed consent is obtained, all slides will be submitted for reading by the central pathologists in conformity with the independent pathology review charter (IPRC) • 2. Patients of either gender greater than 18 years of age • 3. Patients with diabetes that have been on stable doses of anti-diabetic agents since at least 6 months prior to liver biopsy may be enrolled • 4. Females must be of non-child bearing potential (surgically sterilized or at least two years post-menopausal) or if of child-bearing potential, must have a negative pregnancy test at screening and agree to use an effective form of contraception during the study and for at least 30 days following the last dose of study medication • 5. Normal ECG or clinically non-significant findings at the Screening and Baseline visits • 6. No significant concomitant medical illness, without any clinically significant physical exam findings and without any clinically significant laboratory findings, as determined by the principal investigator • 7. […] Inability or unwillingness to have a liver biopsy • 2. Diagnosis of cirrhosis by central pathology reviewers • 3. Previous bariatric surgery or biliary diversion (i.e. gastric bypass), esophageal banding and gastric banding • 4. Serum ALT>300 U/L • 5. Subject has used drugs associated with steatohepatitis within 6 months prior to screening (corticosteroids, high dose estrogens, methotrexate, amiodarone, anti-HIV drugs, tamoxifen, diltiazem) • 6. Use of the following anti-NASH agents for more than a 2 week period in the 3 months prior to liver biopsy or the 3 months prior to screening: • a. Vitamin E>60 IU per day • b. Omega-3-acid ethyl esters or omega-3-PUFA-containing supplements >200 mg per day • c. Thiazoledinediones (e.g. pioglitazone) • 7. […]

[8] = tested on: galactosamine-induced steatohepatitis mouse model; assay: Galactosamine-induced steatohepatitis mouse model; assay type: in vivo; details: oral administration at 1000 mg/kg
[9] = Excretion of radioactivity after single oral administration (rat); assay type: in vivo, rats
Protocol: EPADEL is a product containing ethyl all-cis-5,8,11,14,17-eicosapentaenoate (EPA-E), one of the n−3 essential fatty acids. The preclinical absorption, distribution, metabolism and excretion (ADME) characteristics of EPA-E have been determined primarily in rats.
as §2
Renal excretion was the elimination route for several minor highly polar metabolites (<0.4%), but EPA-E, EPA, DPA or DHA were not detected in the urine. In feces, EPA-E and EPA, evidently derived from the unabsorbed drug, were detected; however, no DPA or DHA was detected in the feces.

[10] = single oral administration at 30 mg/kg

CC/C=C\C/C=C\C/C=C\C/C=C\C/C=C\CCCC(=O)OCC [^14C-EPA-E]
unchanged EPA-E in the plasma or tissues ([1]; rat, oral administration, plasma, liver, fat, heart and brain): no unchanged EPA-E was found
distribution of radioactivity in body tissues ([1]; rats, oral 14C-EPA-E): widely distributed in the body tissues
residual radioactivity in the intestine (ligated intestine): 4.6 % of the administered dose
hydrolysis [2]: hydrolyzed rapidly

CC/C=C\C/C=C\C/C=C\C/C=C\C/C=C\CCCC(=O)O [EPA, Eicosapentaenoic acid]
CYP450 inhibition (CYP450): unlikely to inhibit CYP450

CC/C=C\C/C=C\C/C=C\C/C=C\C/C=C\CCCC(=O)OCC [EPA-E, ethyl all-cis-5,8,11,14,17-eicosapentaenoate]
lipids [3]: lower lipids
elasticity of arteries (arteries): preserve the elasticity of arteries
absorption ([1]; single oral dose 30-1000 mg/kg, rats): well-absorbed
fat accumulation [4]: suppressed fat accumulation
hepatic SREBP-1c levels [4]: suppressing hepatic SREBP-1c levels
monounsaturated fatty acid (MUFA) synthesis by SCD1 [4]: suppressing
gastric fluid levels (pylorus-ligated rats): reduction in gastric fluid levels
fibrosis [5]: inhibited fibrosis
inflammation and oxidative stress [5]: suppressing inflammation and oxidative stress
effect on the central nervous, autonomic nervous, respiratory and cardiovascular systems [6]: no effect
radioactivity excreted in the urine [7]: 1.0%
radioactivity recovered in the feces [7]: 19.2%
response rate (NASH; fasting glucose =<125 mg/dL and HbA1c =<6.4, Study arm 1, FIG. 4): higher response to rate
efficacy (responders) (NASH; fasting glucose =<125 mg/dL and HbA1c =<6.4, Study arm 2): equivalent to that of Study arm 1
NASH response (change of NAS score) (NASH; patients with GGT levels =<33 IU/L, Study arm 1 and 2, FIG. 9, preliminary): higher efficacy
efficacy (preliminary endpoint achievement rate v. GGT) (NASH; patients with GGT levels =<60 IU/L, Study arm 1 and 2, FIG. 8, preliminary): higher efficacy
improvement of serum EPA/AA ratio on Day 365 (NASH; patients with GGT ≤33 IU/L, Study arm 2, FIG. 10, preliminary): higher efficacy
serum EPA/AA ratio over time (NASH; patients with GGT ≤33 IU/L, Study arm 2, FIG. 12): significant increase
efficacy (responders) (NASH; patients with HbA1c levels =<6.4, Study arm 1, FIG. 2, preliminary): higher efficacy
efficacy (responders) (NASH; patients with HbA1c levels =<6.4, Study arm 2, preliminary): equivalent to that of Study arm 1
efficacy (responders) (NASH; patients with fasting glucose =<125 mg/dL, Study arm 1, FIG. 3, preliminary): higher efficacy
efficacy (responders) (NASH; patients with fasting glucose =<125 mg/dL, Study arm 2, preliminary): equivalent to that of Study arm 1
efficacy (responders) (NASH; patients without biliary tract disease markers (GGT ≤33 IU/L), Study arm 1 (600 mg TID) and Study arm 2 (900 mg TID), FIG. 7, preliminary): higher efficacy
efficacy (responders: NAS Score ≤3 or improvement of ≥2 across at least 2 of NAS components) (NASH; patients without diabetes or with mild diabetes compared to diabetic patients, Study arm 1 (600 mg EPA-E, TID), FIG. 1, preliminary): higher efficacy
efficacy (responders: NAS Score ≤3 or improvement of ≥2 across at least 2 of NAS components) (NASH; patients without diabetes or with mild diabetes, Study arm 2 (900 mg EPA-E, TID), preliminary): equivalent to that of Study arm 1
progression of steatohepatitis [8]: retarded progression of steatohepatitis
triglyceride (TG) accumulation [8]: suppressing triglyceride (TG) accumulation
radioactivity excreted in expired air ([9]; rat, in vivo, po, 30 mg/kg): 44%
radioactivity excreted in bile and urine [9, 10]: ~3%
radioactivity excreted in feces [9, 10]: approximately 20%
EPA-E in the urine ([9]; urine): not detected
